We go through two molecules from publication PMC9029538, “Dosing Colistimethate Every 8 h Results in Higher Plasma Concentrations of Active Colistin Than Every 12-Hourly Dosing without Increase in Nephrotoxicity: A Phase 1 Pharmacokinetics Trial in Healthy Adult Volunteers” (Antibiotics, 2022).

Where a SMILES comes first, the peptide text is derived from it. Bridges are numbered along the chain shown (N, C = ends). [ ]: non-standard residue; d: D form. The star is where a group is joined. Heptanoyl(6-Me) = CC(C)CCCCC(=O)*; X1 = CC[C@H](C)CCCCC(=O)*; Dab = NCC[C@H](N)C(=O)O

Data set [1] can be described thus: Plasma pharmacokinetics after IV CMS (Period 1). As to conditions: human, in vivo, iv; for clearance: CL; for Vd: Vdss; for Tmax: median (min-max). The method, then: (§1) During dosing Period 1, subjects in Cohorts 1, 2, and 3 received 2 to 3 doses of IV CMS (total exposure 5–10 mg/kg) based on the specific cohort regimen. During dosing Period 2, the same subjects then received 2 to 4 doses of 75 mg of CMS via aerosolized administration, and during dosing Period 3, subjects received a combination of IV and aerosolized CMS based on the specific cohort regimen. Each dosing period was followed by a washout period of at least 3 days (Table 1).
(§2) For all plasma PK collections, 3 mL samples of whole blood were drawn into collection tubes containing sodium heparin and placed immediately on ice at specified time intervals. […] The blood was centrifuged at 2500× g within 2 h of collection, and the plasma fraction was removed and frozen at −70 °C for shipment to the Analytical Pharmacology Laboratory at the University of Toledo.
(§3) The PK analysis was conducted using Phoenix™ WinNonlin® Version 6.2 (Pharsight, a Certara Company).
(§4) Concentration versus time profiles were investigated for each of the four colistin analytes. These profiles were augmented by the inclusion of estimated concentrations at additional time points, including dosing Period 1—immediately prior to the final IV dose; dosing Period 3—immediately prior to the final IV dose; and after the final IV dose. The following PK parameters were estimated for each: maximum observed concentration (Cmax), area under the plasma concentration versus time curve, AUC (e.g., AUC 0–inf), AUC 0–t) versus time curve, time to maximum observed concentration (Tmax), elimination half-life (t1/2), slope of the post-distributive terminal portion of plasma concentration versus time curve (Kel), total body clearance/bioavailability (CL/F), and the apparent steady-state volume of distribution/bioavailability ([…]). The concentrations of intravenously administered CMS, aerosolized drug, and both delivery methods used simultaneously were compared. In addition, the presence or absence of a proportionality dose-dependent effect was determined.

The next data set can be described thus: clinical. Particulars: in vivo. As for the experimental part:
as §1, §2, §3, §4

Data set [2] is described as follows: Nephrotoxicity (serum creatinine). As to conditions: for serum creatinine increase (absolute) / serum creatinine increase (percent): 24 h post first dose. Details: serum creatinine increase (absolute): unit not given here. In kind it is in vivo, healthy adult volunteers. The method, then:
Serum samples for kidney biomarkers were obtained for serum cystatin C, NGAL, and serum β microglobulin levels. Urine samples were obtained for urine protein, creatinine, and microalbumin excretion (see Supplementary Tables S1–S10 and Data S1–S6).
(§5) Safety assessments for TEAEs were conducted, including physical examinations (including neurological evaluations), […], vital signs, clinical laboratory tests, selected biomarkers for acute kidney injury (see section on kidney biomarkers), spirometry, and ECG measurements (see Supplementary Data S5 and S6 for clinical laboratory evaluations and schedule of events). If symptoms of ataxia were present, SARA (Scale for the Assessment and Rating of Ataxia, according to Schmitz-Hübsch et al.) assessment forms were completed to assess their severity.

Data set [3] in a line: Neurotoxicity (paresthesias, ataxia, SARA scores). Type of data set: in vivo, healthy adult volunteers. As to conditions: Cohort 1, 2.5 mg/kg q12h × 2 doses; Periods 1 and 3 combined; seven of eighteen. As for the experimental part: as §5
Data set [4] concerns A. baumannii or P. aeruginosa. Particulars: retrospective study, cited from earlier work. The text has this:
Whether the aerosolized administration of CMS translates into greater drug efficacy against MDROs in the management of HAP/VAP caused by MDROs, however, still remains a matter of controversy, as is the issue of the efficacy of colistin combination therapy. A retrospective study of pneumonia patients who received aerosolized colistin therapy for a median of 14 days reported the microbiological eradication of the causative MDRO (A. baumannii or P. aeruginosa) in 18 out of 21 cases. This high rate of eradication corroborates another retrospective study in which 37 out of 40 patients who re ...

The mark [5] stands for this setting: 2.5 mg/kg, Period 1, Cohort 1: IV 2.5 mg/kg colistin base activity q12h x 2 doses, plasma after final dose, mean (SD), SD.
Setting [6] is: 2.5 mg/kg, Period 1, Cohort 2: IV 2.5 mg/kg colistin base activity q8h x 3 doses, plasma after final dose, mean (SD), SD.
Setting [7] is: 3.3 mg/kg, Period 1, Cohort 3: IV 3.3 mg/kg colistin base activity q8h x 3 doses, plasma after final dose, mean (SD), SD.
Setting [8] is: Cohort 3, first of four subjects.
Where [9] appears, read: Cohort 3, fourth of four subjects.
Setting [10] is: Cohort 3, second of four subjects.
Setting [11] is: Cohort 3, third of four subjects.

As to `CC(C)CCCCC(=O)N[C@@H](CCN)C(=O)N[C@H](C(=O)N[C@@H](CCN)C(=O)N[C@H]1CCNC(=O)[C@H]([C@@H](C)O)NC(=O)[C@H](CCN)NC(=O)[C@H](CCN)NC(=O)[C@H](CC(C)C)NC(=O)[C@@H](CC(C)C)NC(=O)[C@H](CCN)NC1=O)[C@@H](C)O` [colistin B] ({Heptanoyl(6-Me)}-[Dab]T[Dab][Dab][Dab][dL]L[Dab][Dab]T; lactam 4-C), the values for the AUC(0-t) in data set [1] (setting [5]), in data set [1] (setting [6]) and in data set [1] (setting [7]) were 1940 ng·h/mL, 3590 ng·h/mL and 5680 ng·h/mL, respectively. Also, the AUC(0-inf) (as a rule, total exposure, with the tail of the curve extrapolated) in data set [1] (setting [5]) was 3290 ng·h/mL; in data set [1] (setting [6]), 5150 ng·h/mL; in data set [1] (setting [7]) it was 7160 ng·h/mL. Moreover, the clearance (usually the volume of plasma or blood freed of the substance per unit of time) in data set [1] (setting [5]) was 96.8 mL/min; in data set [1] (setting [6]), 59 mL/min; in data set [1] (setting [7]), 58.2 mL/min. For the same molecule, the peak concentration (Cmax) (commonly the peak of the concentration-time curve) in data set [1] (setting [5]) was 570 ng/mL; in data set [1] (setting [6]) it was 891 ng/mL; in data set [1] (setting [7]), 1390 ng/mL. Moreover, the Vd (commonly the apparent volume that relates the amount in the body to the concentration in plasma or blood) in data set [1] (setting [5]) turned out to be 26.3 L; in data set [1] (setting [6]), 18.1 L; in data set [1] (setting [7]), 17.3 L. In addition, the half-life – broadly, the time needed for the level to fall by half in the phase considered – was 3.45 h in data set [1] (2.5 mg/kg, t1/2, Period 1, Cohort 1: IV 2.5 mg/kg colistin base activity q12h x 2 doses, plasma after final dose, mean (SD), SD); 3.64 h in data set [1] (2.5 mg/kg, t1/2, Period 1, Cohort 2: IV 2.5 mg/kg colistin base activity q8h x 3 doses, plasma after final dose, mean (SD), SD); 3.55 h in data set [1] (3.3 mg/kg, t1/2, Period 1, Cohort 3: IV 3.3 mg/kg colistin base activity q8h x 3 doses, plasma after final dose, mean (SD), SD); roughly 3.5 h in data set [1] (elimination t1/2 (half-life, as stated in text), plasma). The time of peak concentration (Tmax) (as a rule, the time from dosing to the highest level) in data set [1] (2.5 mg/kg, Period 1, Cohort 1: IV 2.5 mg/kg colistin base activity q12h x 2 doses, plasma after final dose) turned out to be 0.667 h; in data set [1] (2.5 mg/kg, Period 1, Cohort 2: IV 2.5 mg/kg colistin base activity q8h x 3 doses, plasma after final dose), 0.6 h; in data set [1] (3.3 mg/kg, Period 1, Cohort 3: IV 3.3 mg/kg colistin base activity q8h x 3 doses, plasma after final dose), 0.6 h. The “circulating plasma concentrations following aerosol administration alone” value in “clinical” is recorded as “no detectable concentrations”.
Regarding `CC[C@H](C)CCCCC(=O)N[C@@H](CCN)C(=O)N[C@H](C(=O)N[C@@H](CCN)C(=O)N[C@H]1CCNC(=O)[C@H]([C@@H](C)O)NC(=O)[C@H](CCN)NC(=O)[C@H](CCN)NC(=O)[C@H](CC(C)C)NC(=O)[C@@H](CC(C)C)NC(=O)[C@H](CCN)NC1=O)[C@@H](C)O` [colistin] (X1-[Dab]T[Dab][Dab][Dab][dL]L[Dab][Dab]T; lactam 4-C), the “subjects with reversible nephrotoxicity (elevated serum creatinine at 24 h post first dose)” value in data set [2] (Cohort 3, after three doses of IV colistin 2.5 mg/kg q8h (so in the source)) is on record as “four”. The “serum creatinine increase (absolute)” value in data set [2] (setting [8]) is on record as 0.67; in data set [2] (setting [9]), 0.3; in data set [2] (setting [10]) it was 0.82; in data set [2] (setting [11]), 0.69. Besides, the “serum creatinine increase (percent)” value in data set [2] (setting [8]) is 95.7%; in data set [2] (setting [9]), 45.5%; in data set [2] (setting [10]), 82.0%; in data set [2] (setting [11]), 73.4%. In data set [2] (Cohort 3, ±4 days), the “time over which creatinine increases resolved” value was 10 days. In addition, in data set [2] (dose increased from 5 mg/kg/day (Cohort 1; 2.5 mg/kg q12h) to 7.5 mg/kg/day (Cohort 2; 2.5 mg/kg q8h)), the “effect on serum creatinine” value is on record as “did not result in increases in serum creatinine”. Further, the “subjects reporting self-limited perioral paresthesias” value in data set [3] was found to be 39%. Moreover, the “patients with negative follow-up cultures” value in data set [4] (aerosolized colistin therapy) was 37 out of 40. Besides, the “microbiological eradication of the causative MDRO (cases)” value in data set [4] (pneumonia patients, aerosolized colistin for a median of 14 days) was 18 out of 21.
